l = locked nucleic acid (LNA); d = 2'-deoxy (DNA)
How the values were obtained:
Assay type in all cases: cell-based
hCD39 = target: T1, hCD39 (Homo sapiens, UniProt P49961); test: ATP degradation in JIYOYE cells after hCD39 knockdown (ATP Bioluminescence Assay); conditions: for Relative ATP levels in supernatants of JIYOYE cells 30 minutes after addition of ATP (vs. Medium control): 5 μM oligonucleotide 6 days or 20 μM ARL67156 1 h, 2 μM ATP added
T1 construct: endogenous in cells; host or cells: JIYOYE cells
T1 sequence (P49961 1-510): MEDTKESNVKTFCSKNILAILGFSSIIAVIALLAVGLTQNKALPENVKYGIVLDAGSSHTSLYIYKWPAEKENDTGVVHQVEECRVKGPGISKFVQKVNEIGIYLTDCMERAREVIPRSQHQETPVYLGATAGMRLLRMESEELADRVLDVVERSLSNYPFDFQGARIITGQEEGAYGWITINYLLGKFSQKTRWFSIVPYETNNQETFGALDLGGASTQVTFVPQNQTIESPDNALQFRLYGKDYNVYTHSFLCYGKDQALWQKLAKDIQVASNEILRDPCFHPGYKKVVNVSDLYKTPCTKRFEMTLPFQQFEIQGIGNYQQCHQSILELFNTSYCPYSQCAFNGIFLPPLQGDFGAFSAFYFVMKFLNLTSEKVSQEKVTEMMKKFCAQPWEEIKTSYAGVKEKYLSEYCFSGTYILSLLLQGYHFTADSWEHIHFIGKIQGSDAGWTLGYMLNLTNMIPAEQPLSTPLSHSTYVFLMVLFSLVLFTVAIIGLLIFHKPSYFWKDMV
Experimental: FIG. 10A-10C depict effects of hCD39 knockdown on viability and ATP concentration in JIYOYE cells. JIYOYE cells were treated with the indicated antisense oligonucleotide A04040H (SEQ ID No.3) or neg1 for 6 days in total at 5 μM. Medium was replaced with fresh oligonucleotide-containing medium after 3 days and hCD39 protein knockdown efficacy was analyzed on day 6 by flow cytometry. Residual hCD39 expression and viability of oligonucleotide-treated cells is depicted compared to untreated cells (FIG. 10A-10B). After 6 days, 20 μM of the CD39 small molecular inhibitor ARL67156 trisodium salt was added to no ASO treated cells and incubated for 1 h at 37° C. Then, 2 μM of ATP was added to cells or cell culture medium without cells from each condition and ATP concentration of cell supernatants or cell culture medium was determined after 30 min using the ATP Bioluminescence Assay Kit (Roche) (FIG. 10C).
Adenosine is one major immunosuppressive molecule generated during ATP degradation by hCD39. ATP can be detected by an ATP Bioluminescence Assay (ATP Bioluminescence Assay Kit CLS II; Roche). JIYOYE cells were treated with 5 μM antisense oligonucleotide A04040H (SEQ ID No. 3) or the negative control oligonucleotide neg1 for 6 days (3+3). After 3 days, RPMI-1640 medium was replaced with fresh RPMI-1640 medium containing 5 μM of oligonucleotide. Protein knockdown efficacy (FIG. 10A) and viability (FIG. 10B) were analyzed after 6 days by flow cytometry. […] The same day, cells that were not treated with any antisense oligonucleotide were incubated for 1 hr at 37° C. with 20 μM of the CD39 small molecular inhibitor ARL67156 trisodium salt (TOCRIS). Then, 2 μM of ATP was added to cells or cell culture medium without cells derived from each condition and ATP concentration was measured in the cell supernatants or in cell culture medium after 30 min. […] Table 14 presents the effect of hCD39 knockdown on relative ATP levels in the cell culture supernatants of JIYOYE cells: […]

hCD39 protein = hCD39 protein expression in primary human CD8+ and CD4+ T cells after oligonucleotide removal (flow cytometry); conditions: 10 μM for six days with anti-CD3, compared to untreated control cells
Experimental: Thereafter, oligonucleotides and anti-CD3 were removed and hCD39 protein expression was analyzed by flow cytometry three, six, and eleven days after oligonucleotide removal. CD39 protein expression is depicted as mean fluorescence intensity (MFI) and was calculated by subtracting the MFI of the unspecific isotype control from the MFI of CD39. Depicted is the mean of duplicate wells+/−SD.
A04040H had shown very potent activity in suppressing hCD39 expression on mRNA- and protein-level in human cancer cell lines. In the next step, its activity in primary human T cells was investigated. Furthermore, the persistence of the effects after antisense oligonucleotide removal was examined. Therefore, CD8^+ and CD4^+ T cells were isolated from peripheral blood and activated for a total treatment time of six days with anti-CD3 in the presence of 10 μM of the hCD39 specific antisense oligonucleotide A04040H (black column) or the control oligonucleotide S6 (white column), which is not complementary to any human mRNA. […] Thereafter, oligonucleotides were removed and hCD39 protein expression was analyzed three, six, and eleven days after oligonucleotide removal by flow cytometry (FIG. 9).

CD39 protein = CD39 protein expression in human CD8+ T cells (flow cytometry, Example 11); conditions: 5 μM, 5 days, anti-CD3
Experimental: (§1) FIG. 12A-12C depict human CD8^+ T cells which were labelled with cell proliferation dye, activated with anti-CD3 and treated with 5 μM of the antisense oligonucleotide A04040H (black column) or the control oligonucleotide S6 (white column) for a total treatment time of 5 days. In the vehicle control (striped column), cells were activated with anti-CD3 only. Subsequently, 400 μM of ATP or vehicle were added to cells on day 3 and day 4 after start of oligonucleotide treatment. Furthermore, as additional control, the small molecular CD39-inhibitor ARL67156 trisodium salt was added at 20 μM to cells on day 4, for an incubation time of 24 h (checked column). On day 5 after start of oligonucleotide treatment, (FIG. 12A) CD39 protein expression, (FIG. 12B) proliferation and (FIG. 12C) absolute cell numbers of CD8^+ T cells were analyzed using Flow Cytometry. Depicted is the mean of triplicate wells+/−SD.
In cancer, ATP is released from tumor cells for example after cell death induced by chemotherapy or radiation therapy. Since the CD39-CD73 axis plays an important role for T cell function the effects of A04040H on T cell proliferation in the presence or absence of extracellular ATP were investigated. […] On day 5 after start of oligonucleotide treatment, CD39 protein expression, proliferation, and absolute cell numbers of CD8^+ T cells were analyzed using Flow Cytometry.

human CD8+ T cells = test: Proliferation and absolute cell numbers of human CD8+ T cells in presence or absence of extracellular ATP; conditions: 5 μM oligonucleotide 5 days or 20 μM ARL67156 24 h
Experimental: as §1
In cancer, ATP is released from tumor cells for example after cell death induced by chemotherapy or radiation therapy. Since the CD39-CD73 axis plays an important role for T cell function the effects of A04040H on T cell proliferation in the presence or absence of extracellular ATP were investigated. Human CD8^+ T cells were labelled with cell proliferation dye, activated with anti-CD3 and treated with 5 μM of the antisense oligonucleotide A04040H or the control oligonucleotide S6 for a total treatment time of 5 days. In the vehicle control, cells were activated with anti-CD3 only. Subsequently, 400 μM of ATP or vehicle were added to cells on day 3 and day 4 after start of oligonucleotide treatment. Furthermore, as additional control, the small molecular CD39-inhibitor ARL67156 trisodium salt was added at 20 μM to cells on day 4 for an incubation time of 24 h. On day 5 after start of oligonucleotide treatment, CD39 protein expression, proliferation, and absolute cell numbers of CD8^+ T cells were analyzed using Flow Cytometry.

[1] = JIYOYE cells, 5 μM, 6 days, 2 μM ATP, 30 min
[2] = absence of extracellular ATP, vs vehicle
[3] = supplementation with 400 μM of ATP

+C*+G*+T*T*T*A*G*G*C*T*A*T*G*T*A*+C*+T*+T (CGTTTAGGCTATGTACTT; chemistry not fully specified) [neg1, negative control antisense oligonucleotide not hybridizing with CD39, described in WO2014154843 A1, reference compound]
Relative ATP levels in supernatants of JIYOYE cells 30 minutes after addition of ATP (vs. Medium control) (hCD39): 0.19

+G*+T*+T*T*G*T*G*T*G*A*G*A*G*C*+T*+T (antisense GTTTGTGTGAGAGCTT; sugars from the 5' end l3 d11 l2, all phosphorothioate, methylation of C not given here) [A04040H]
hCD39 protein expression (MFI) after oligonucleotide removal (hCD39 protein): significantly suppressed hCD39 protein expression for a duration of at least six days after removal
Relative ATP levels in supernatants of JIYOYE cells 30 minutes after addition of ATP (vs. Medium control) (hCD39): 0.76
ATP concentration compared to cells treated with ARL67156 (hCD39; [1]): 2 ×
ATP concentration compared to cells treated with neg 1 (hCD39; [1]): about 4 ×
ATP degradation efficacy (hCD39; [1]): nearly abolished
CD39 protein expression (CD39 protein): potently suppressed
absolute cell numbers of CD8+ T cells (human CD8+ T cells; [2]): no differences
proliferation of CD8+ T cells (human CD8+ T cells; [2]): no differences
absolute numbers of CD8+ T cells (human CD8+ T cells; [3]): not altered
proliferation of CD8+ T cells (human CD8+ T cells; [3]): not reduced
